Data as given in patent US10111890B2, “9-aminomethyl minocycline compounds and uses thereof” (Paratek Pharmaceuticals, Inc., priority 2016, dated 2018).

Legend:
[1] = Phase 1 multiple oral dose (300, 450, 600 mg once daily x 5 days) crossover study: plasma pharmacokinetics; conditions: for Day 1 PK Summary, Geom. Mean / Day 1 PK Summary, Mean / Day 5 PK Summary, Geom. Mean / Day 5 PK Summary, Mean: preliminary results; for half-life / Tmax / AUC(0-t) / Cmax: human; for half-life: in vivo; for Tmax / AUC(0-t) / Cmax: plasma; for Cmax: Mean Cmax; for exposure (dose-normalized AUC0-24) as % of that predicted if perfectly dose-proportional: increase in dose from 300 mg to 600 mg
From the text: Thus the study was designed as a Phase 1, randomized, double-blind, 3-period, crossover study in healthy adult subjects. The study consisted of a screening period (Day −21 through Day −2), 3 baseline periods (Day −1 of each period), 3 treatment periods (Day 1 through Day 6 of each period), and a study completion visit (within 6 to 10 days after the last dose of study drug in Period 3). There was a washout of at least 5 days between the last dose in one period and the first dose in the next period. Subjects were confined to the study site from Day −1 of Period 1 until discharge on Day 6 of Period 3, after the 24-hour blood sampling, urine sampling, and safety assessments were completed. Subjects returned to the study center 6 to 10 days after the last dose of study drug in Period 3 for the study completion visit.
All doses of study drug were administered in the morning with no food or drink except for water at least 6 hours prior to dosing. Subjects then had no food or drink except water for at least 2 hours after dosing and no dairy products, antacids, or multivitamins for 4 hours after dosing.
The 24-hour blood sample for Day 1 was collected prior to dosing on Day 2 for each period.
Point estimates and 90% CIs for differences on the log scale were exponentiated to obtain estimates for the ratios of geometric means and respective 90% CIs on the original scale. No adjustment was made for multiplicity.
The estimates of slope b were reported along with the corresponding 2-sided 90% CIs.

[2] = Phase 1 multiple oral dose study: safety and tolerability (TEAEs, serum chemistry)
[3] = Phase 1 food-effect study: safety and tolerability; type: in vivo, human
Description: Safety and tolerability was assessed by: Adverse events (AEs); vital sign measurements at multiple time-points within 24 hours post-dose in each treatment period; and clinical laboratory tests 24 hours post-dose in each treatment period.

[4] = 600 mg (n = 24), listed as omadacycline
[5] = 300, 450, 600 mg once daily x 5 days
[6] = single 300 mg oral dose, healthy subjects

CN(C)c1cc(CNCC(C)(C)C)c(O)c2c1C[C@H]1C[C@H]3[C@H](N(C)C)C(O)=C(C(N)=O)C(=O)[C@@]3(O)C(O)=C1C2=O [Omadacycline, 9-[(2,2-dimethyl-propylamino)-methyl]-minocycline]
Mean AUC0-24 ([1]; 300 mg oral once daily, Day 5): 9267.2 ng·h/mL
Cmax/Dose, Geometric LS Means ([1]; 300 mg, Day 1): 2.09 ng/mL/mg
Cmax/Dose, Geometric LS Means ([1]; 300 mg, Day 5): 2.62 ng/mL/mg
Cmax/Dose, Geometric LS Means ([1]; 450 mg, Day 1): 1.81 ng/mL/mg
Cmax/Dose, Geometric LS Means ([1]; 450 mg, Day 5): 2.32 ng/mL/mg
Cmax/Dose, Geometric LS Means ([1]; 600 mg, Day 1): 1.54 ng/mL/mg
Cmax/Dose, Geometric LS Means ([1]; 600 mg, Day 5): 2.11 ng/mL/mg
Day 1 PK Summary, Geom. Mean ([1]; 300 (dose), Day 1): 6,293.65
Day 1 PK Summary, Mean ([1]; 300 (dose), Day 1): 6,560.73
Day 5 PK Summary, Geom. Mean ([1]; 300 (dose), Day 5): 8,990.55
Day 5 PK Summary, Mean ([1]; 300 (dose), Day 5): 9,351.02
Day 1 PK Summary, Geom. Mean ([1]; 450 (dose), Day 1): 8,382.03
Day 1 PK Summary, Mean ([1]; 450 (dose), Day 1): 8,959.13
Day 5 PK Summary, Geom. Mean ([1]; 450 (dose), Day 5): 12,883.95
Day 5 PK Summary, Mean ([1]; 450 (dose), Day 5): 13,363.54
Day 1 PK Summary, Geom. Mean ([1]; 600 (dose), Day 1): 9,644.67
Day 1 PK Summary, Mean ([1]; 600 (dose), Day 1): 9,990.20
Day 5 PK Summary, Geom. Mean ([1]; 600 (dose), Day 5): 15,431.37
Day 5 PK Summary, Mean ([1]; 600 (dose), Day 5): 16,171.61
systemic exposure on Day 5 higher than on Day 1 ([1]; all tested dose levels): ~50%
half-life ([1]; mean half-life in plasma (T1/2), across the 3 tested dose levels, Day 1): ~780 min
half-life ([1]; mean half-life in plasma (T1/2), across the 3 tested dose levels, Day 5): ~960 min
half-life ([1]; po, 300 mg, Mean T1/2, 300 mg oral once daily, Day 1): 820 min
half-life ([1]; po, 300 mg, Mean T1/2, 300 mg oral once daily, Day 5): 929 min
half-life ([1]; po, 450 mg, Mean T1/2, 450 mg oral once daily, Day 1): 807 min
half-life ([1]; po, 450 mg, Mean T1/2, 450 mg oral once daily, Day 5): 1010 min
half-life ([1]; po, 600 mg, Mean T1/2, 600 mg oral once daily, Day 1): 782 min
half-life ([1]; po, 600 mg, Mean T1/2, 600 mg oral once daily, Day 5): 1000 min
Tmax ([1]; oral, 600 mg, time at which mean plasma concentrations peaked (Tmax), all tested dose levels (300, 450, 600 mg), Day 1 and Day 5): 2.5 h
AUC(0-t) ([1]; po, 300 mg, Mean AUC0-24, 300 mg oral once daily, Day 1): 6640 ng·h/mL
AUC(0-t) ([1]; po, 300 mg, Mean AUC0-24, 300 mg oral once daily, Day 5): 9270 ng·h/mL
Cmax ([1]; po, 300 mg, 300 mg oral once daily, Day 1): 649 ng/mL
Cmax ([1]; po, 300 mg, 300 mg oral once daily, Day 5): 809 ng/mL
Tmax ([1]; po, 300 mg, Mean Tmax, 300 mg oral once daily, Day 1): 2.5 h
Tmax ([1]; po, 300 mg, Mean Tmax, 300 mg oral once daily, Day 5): 2.5 h
AUC(0-t) ([1]; po, 450 mg, Mean AUC0-24, 450 mg oral once daily, Day 1): 8980 ng·h/mL
AUC(0-t) ([1]; po, 450 mg, Mean AUC0-24, 450 mg oral once daily, Day 5): 13400 ng·h/mL
Cmax ([1]; po, 450 mg, 450 mg oral once daily, Day 1): 874 ng/mL
Cmax ([1]; po, 450 mg, 450 mg oral once daily, Day 5): 1080 ng/mL
Tmax ([1]; po, 450 mg, Mean Tmax, 450 mg oral once daily, Day 1): 2.5 h
Tmax ([1]; po, 450 mg, Mean Tmax, 450 mg oral once daily, Day 5): 2.5 h
AUC(0-t) ([1]; po, 600 mg, Mean AUC0-24, 600 mg oral once daily, Day 1): 10000 ng·h/mL
AUC(0-t) ([1]; po, 600 mg, Mean AUC0-24, 600 mg oral once daily, Day 5): 16400 ng·h/mL
Cmax ([1]; po, 600 mg, 600 mg oral once daily, Day 1): 954 ng/mL
Cmax ([1]; po, 600 mg, 600 mg oral once daily, Day 5): 1310 ng/mL
Tmax ([1]; po, 600 mg, Mean Tmax, 600 mg oral once daily, Day 1): 2.51 h
Tmax ([1]; po, 600 mg, Mean Tmax, 600 mg oral once daily, Day 5): 2.5 h
exposure (dose-normalized AUC0-24) as % of that predicted if perfectly dose-proportional ([1]; Day 1): 76%
exposure (dose-normalized AUC0-24) as % of that predicted if perfectly dose-proportional ([1]; Day 5): 88%
Any TEAE, % of subjects ([2]; 300 mg (n = 26)): (19.2) %
Any TEAE, n of subjects ([2]; 300 mg (n = 26)): 5 n
Most frequent TEAEs: Dizziness, % ([2]; 300 mg (n = 26)): (7.7) %
Most frequent TEAEs: Nausea, % ([2]; 300 mg (n = 26)): (7.7) %
Most frequent TEAEs: Vomiting, % ([2]; 300 mg (n = 26)): (7.7) %
TEAEs leading to early discontinuation of study drug: All, % ([2]; 300 mg (n = 26)): (3.8) %
TEAEs leading to early discontinuation of study drug: Nausea, % ([2]; 300 mg (n = 26)): (3.8) %
TEAEs leading to early discontinuation of study drug: Vomiting, % ([2]; 300 mg (n = 26)): (3.8) %
Treatment-related TEAE, % of subjects ([2]; 300 mg (n = 26)): (15.4) %
Treatment-related TEAE, n of subjects ([2]; 300 mg (n = 26)): 4 n
Treatment-related TEAE, % of subjects ([2]; 300 mg (n = 26), listed as omadacycline): 15.4%
median change in alanine aminotransferase (ALT) concentration between baseline and Day 5 ([2]; 300 mg omadacycline): −2.0 IU/L
Any TEAE, % of subjects ([2]; 450 mg (n = 24)): (12.5) %
Any TEAE, n of subjects ([2]; 450 mg (n = 24)): 3 n
Most frequent TEAEs: ALT increased, % ([2]; 450 mg (n = 24)): (4.2) %
Most frequent TEAEs: Nausea, % ([2]; 450 mg (n = 24)): (4.2) %
TEAEs leading to early discontinuation of study drug: ALT increased, % ([2]; 450 mg (n = 24)): (4.2) %
TEAEs leading to early discontinuation of study drug: All, % ([2]; 450 mg (n = 24)): (4.2) %
Treatment-related TEAE, % of subjects ([2]; 450 mg (n = 24)): (8.3) %
Treatment-related TEAE, n of subjects ([2]; 450 mg (n = 24)): 2 n
Treatment-related TEAE, % of subjects ([2]; 450 mg (n = 24), listed as omadacycline): 8.3%
median change in alanine aminotransferase (ALT) concentration between baseline and Day 5 ([2]; 450 mg omadacycline): 5.0 IU/L
Any TEAE, % of subjects ([2]; 600 mg (n = 24)): (25.0) %
Any TEAE, n of subjects ([2]; 600 mg (n = 24)): 6 n
Most frequent TEAEs: ALT increased, % ([2]; 600 mg (n = 24)): (4.2) %
Most frequent TEAEs: Diarrhea, % ([2]; 600 mg (n = 24)): (8.3) %
Most frequent TEAEs: Dizziness, % ([2]; 600 mg (n = 24)): (4.2) %
Most frequent TEAEs: Nausea, % ([2]; 600 mg (n = 24)): (16.7) %
Most frequent TEAEs: Vomiting, % ([2]; 600 mg (n = 24)): (4.2) %
TEAEs leading to early discontinuation of study drug: All, % ([2]; 600 mg (n = 24)): (4.2) %
TEAEs leading to early discontinuation of study drug: Lipase increased, % ([2]; 600 mg (n = 24)): (4.2) %
Treatment-related TEAE, % of subjects ([2]; 600 mg (n = 24)): (25.0) %
Treatment-related TEAE, n of subjects ([2]; 600 mg (n = 24)): 6 n
Most frequent TEAEs: Nausea, % [2, 4]: 16.7%
Treatment-related TEAE, % of subjects [2, 4]: 25.0%
median change in alanine aminotransferase (ALT) concentration between baseline and Day 5 ([2]; 600 mg omadacycline): 19.5 IU/L
serious TEAEs (SAEs) [2, 5]: no serious TEAEs (SAEs) reported
severity of TEAEs [2, 5]: either mild or moderate in severity
Any TEAE, % of subjects ([2]; Omadacycline Overall (n = 26)): (38.5) %
Any TEAE, n of subjects ([2]; Omadacycline Overall (n = 26)): 10 n
Most frequent TEAEs: ALT increased, % ([2]; Omadacycline Overall (n = 26)): (7.7) %
Most frequent TEAEs: Diarrhea, % ([2]; Omadacycline Overall (n = 26)): (7.7) %
Most frequent TEAEs: Dizziness, % ([2]; Omadacycline Overall (n = 26)): (11.5) %
Most frequent TEAEs: Nausea, % ([2]; Omadacycline Overall (n = 26)): (23.1) %
Most frequent TEAEs: Vomiting, % ([2]; Omadacycline Overall (n = 26)): (11.5) %
TEAEs leading to early discontinuation of study drug: ALT increased, % ([2]; Omadacycline Overall (n = 26)): (3.8) %
TEAEs leading to early discontinuation of study drug: All, % ([2]; Omadacycline Overall (n = 26)): (11.5) %
TEAEs leading to early discontinuation of study drug: Lipase increased, % ([2]; Omadacycline Overall (n = 26)): (3.8) %
TEAEs leading to early discontinuation of study drug: Nausea, % ([2]; Omadacycline Overall (n = 26)): (3.8) %
TEAEs leading to early discontinuation of study drug: Vomiting, % ([2]; Omadacycline Overall (n = 26)): (3.8) %
Treatment-related TEAE, % of subjects ([2]; Omadacycline Overall (n = 26)): (34.6) %
Treatment-related TEAE, n of subjects ([2]; Omadacycline Overall (n = 26)): 9 n
Any TEAE, % of subjects ([2]; Omadacycline Overall (n = 26), listed as omadacycline): 38.5%
nausea, % of subjects ([2]; omadacycline 300 and 450 mg dose groups): ≤ 7.7%
highest individual ALT value ([2]; subject who received 450 mg in Period 1 then 300 mg in Period 2): 150 IU/L
serious AE (SAE) [3, 6]: no subject experienced a serious AE
treatment-related adverse events, clinically relevant changes in laboratory values or vital signs [3, 6]: No treatment-related adverse events or clinically relevant changes in laboratory values, or vital signs occurred
median change from baseline in heart rate ([3]; single 300 mg oral dose, all other treatment groups, all measured time points): ≤ 3 bpm
tolerability ([3]; single oral dose (300 mg), healthy subjects): well tolerated
